The source of these data is US6599907B1, “Cystic fibrosis medicaments” (University of Wales College of Medicine, priority 1999, dated 2003).

Where two headings read alike, the source gives them in different places. Marks after values point to notes of the source that are not given here.

The subject of one assay is cyclic AMP. As to the kind of experiment: Cyclic AMP content of acini (radioimmunoassay). It counts as cell-based, rat. The settings on record: for Cyclic AMP (pmol/mg protein), isoproterenol-stimulated: isoproterenol 10 μM alone or + PDE inhibitor (IBMX, Type III, Type IV 1 mM; Type V 0.2 mM), 5 min, n in parentheses.
Assay [1] has as its system CFTR. Put plainly: Correction of CFTR antibody-inhibited β-adrenergic stimulation of mucin secretion in rat submandibular acini. The conditions noted are these: acini containing CFTR antibody; isoproterenol 10 μM + PDE inhibitor (Types III, IV 1 mM; Type V 0.2 mM); 30 min; compared with cpt-cyclic AMP 1 mM.
A further assay relates to cyclic GMP. As to the kind of experiment: Cyclic GMP content of acini (radioimmunoassay). It counts as cell-based, rat. The settings on record: for Cyclic GMP (fmol/mg protein), + Isoproterenol (10 μM) / Cyclic GMP (fmol/mg protein), No Isoproterenol: 5 min, IBMX, Types III, IV 1 mM, Type V 0.2 mM, mean±SEM (n).
The test system of the next assay is rat submandibular acini. As to the kind of experiment: Mucin secretion from rat submandibular acini ([3H]-glucosamine labelled mucin release). The conditions noted are these: for Mucin Secretion (% basal), isoproterenol-stimulated: isoproterenol 10 μM alone or + PDE inhibitor (IBMX, Type III, Type IV 1 mM; Type V 0.2 mM), 30 min, n in parentheses; for Mucin secretion % basal: wild type mucin secretion.

Assay [2] deals with CFTR. The settings on record: acini containing CFTR antibody; 1 mM; 'has been shown'; cited from earlier work.
Another assay has as its target PDE V (Homo sapiens, UniProt O76074). Put plainly: PDE V inhibition. Format: biochemical.

For the compound `C[C@@H]1CC(=O)NN=C1c1ccc(-n2ccc(=O)cc2)cc1` (racemic) [Type III, (R,S)-4,5-dihydro-6-[4-(1,4-dihydro-4-oxopyridin-1-yl)phenyl]-5-methyl-3(2H)-pyridazinone, reference compound], the “Cyclic AMP (pmol/mg protein), isoproterenol-stimulated” value (from here on “Cyclic AMP (pmol/mg protein)”) with cyclic AMP is on record as “*1009.6 ± 91.5 (6) pmol/mg protein”. The “Correction of the defective β-adrenergic secretory response (FIG. 1)” value (shortened to “Correction”) with CFTR [1] was “ineffective”. In the assay on cyclic GMP, the “Cyclic GMP (fmol/mg protein), + Isoproterenol (10 μM)” value (“Cyclic GMP … (10 μM)” below) was 47.0 ± 1.8 (4) fmol/mg protein and the “Cyclic GMP (fmol/mg protein), No Isoproterenol” value (from here on “Cyclic GMP … No Isoproterenol”) is recorded as 39.3 ± 2.4 (3) fmol/mg protein. For the same compound, in the assay with rat submandibular acini, the “Mucin Secretion (% basal), isoproterenol-stimulated” value (from here on “Mucin Secretion (% basal)”) is 692 ± 238 (6) % basal.

For `CC(C)Cn1c(=O)n(C)c(=O)c2[nH]cnc21` [IBMX, reference compound], the “Restored secretion, % of the secretion response seen in cells containing an equivalent amount of non-immune IgG” value with CFTR [2] is “approx. 75%”. The “Cyclic AMP (pmol/mg protein)” value with cyclic AMP was “*1252.9 ± 129.6 (6) pmol/mg protein”. In the assay with cyclic GMP, the “Cyclic GMP … (10 μM)” value is “**55.6 ± 1.6 (8) fmol/mg protein” and the “Cyclic GMP … No Isoproterenol” value is on record as 48.1 ± 5.2 (8) fmol/mg protein. Besides, in the assay with rat submandibular acini, the “Mucin Secretion (% basal)” value is reported as 924 ± 290 (6) % basal.

As for `CC(C)NCC(O)c1ccc(O)c(O)c1` (stereo not drawn) [Isoproterenol, reference compound], the “Cyclic AMP (pmol/mg protein)” value in the assay with cyclic AMP is 373.0 ± 84.0 (6) pmol/mg protein. Moreover, the “Cyclic GMP … (10 μM)” value with cyclic GMP is given as 45.2 ± 1.6 (4) fmol/mg protein. Moreover, the “Mucin Secretion (% basal)” value in the assay on rat submandibular acini is 785 ± 212 (6) % basal.

Consider `COc1ccc(C2CNC(=O)C2)cc1OC1CCCC1` (stereo not drawn) [Type IV, 4-(3-cyclopentyloxy-4-methoxyphenyl)-2-pyrrolidinone, reference compound], for which the “Cyclic AMP (pmol/mg protein)” value in the assay with cyclic AMP is listed as “**1908.7 ± 150.8 (6) pmol/mg protein”. Moreover, in the assay on CFTR [1], the “Correction” value is “as effective as cpt-cAMP”. Besides, in the assay with cyclic GMP, the “Cyclic GMP … (10 μM)” value was 45.2 ± 2.0 (4) fmol/mg protein and the “Cyclic GMP … No Isoproterenol” value is 40.1 ± 1.5 (3) fmol/mg protein. For the same compound, the “Mucin Secretion (% basal)” value in the assay with rat submandibular acini was 708 ± 220 (6) % basal.

With `CCCOc1ccccc1-c1nc2[nH]cnc2c(=O)[nH]1` [Type V, 1,7-dihydro-2-(2-propoxyphenyl)-6H-purin-6-one], the “Cyclic AMP (pmol/mg protein)” value in the assay with cyclic AMP is 375.5 ± 95.8 (6) pmol/mg protein; in the assay on cyclic AMP (listed as Type V PDE inhibitor), “did not potentiate”. Further, the “Correction” value in the assay with CFTR [1] was “as effective as cpt-cAMP”. The “Cyclic GMP … (10 μM)” value in the assay on cyclic GMP was “**64.3 ± 3.6 (5) fmol/mg protein”. Moreover, the “Cyclic GMP … No Isoproterenol” value in the assay with cyclic GMP is on record as “*47.3 ± 2.5 (5) fmol/mg protein”. The “Mucin Secretion (% basal)” value in the assay on rat submandibular acini was 755 ± 243 (6) % basal.

As to `CCCOc1ccccc1-c1nc2[nH]cnc2c(=O)[nH]1` [a)], in the assay on cyclic AMP, the “cyclic AMP % basal” value worked out at 100 % basal. Further, the “cyclic GMP % basal” value in the assay on cyclic GMP came out at 140 % basal. Besides, in the assay on rat submandibular acini, the “Mucin secretion % basal” value is 120 % basal.

Usually IC50 stands for the concentration needed to halve the response being measured. Take `CCCOc1ccccc1-c1nc2cnccc2c(=O)[nH]1` [b)]: in the assay with cyclic AMP, the “cyclic AMP % basal” value is on record as 600* % basal. At PDE V, this compound registered an IC50 of 550 nM. For the same compound, the “cyclic GMP % basal” value with cyclic GMP was 130 % basal. The “Mucin secretion % basal” value in the assay with rat submandibular acini is given as 180* % basal.

Turning to `CNc1ncc2c(=O)[nH]c(-c3ccccc3OC)nc2n1` [c)], the “cyclic AMP % basal” value in the assay on cyclic AMP is 250* % basal. The IC50 on PDE V (read-out: PDE V IC50) came to 22000 nM. The “cyclic GMP % basal” value with cyclic GMP came out at 90 % basal. The “Mucin secretion % basal” value with rat submandibular acini was 160* % basal.

For the compound `COc1ccccc1-c1nc2cccnc2[nH]1` [d)], the “cyclic AMP % basal” value in the assay with cyclic AMP was 600* % basal. Also, the IC50 at PDE V (read-out: PDE V IC50) is 34000 nM. In the assay with cyclic GMP, the “cyclic GMP % basal” value is recorded as 90 % basal. Besides, in the assay with rat submandibular acini, the “Mucin secretion % basal” value is listed as 200* % basal.

On to `CCCOc1ccccc1-c1nc2nc(N)ncc2c(=O)[nH]1` [e)], for which the “cyclic AMP % basal” value with cyclic AMP is on record as 350* % basal. Besides, the IC50 on PDE V (read-out: PDE V IC50) was found to be 650 nM. Also, the “cyclic GMP % basal” value in the assay with cyclic GMP is 130 % basal. In addition, in the assay on rat submandibular acini, the “Mucin secretion % basal” value is on record as 170* % basal.

On to `CCOc1ccccc1-c1nc2[nH]cnc2c(=O)[nH]1` [f)], for which the “cyclic AMP % basal” value in the assay on cyclic AMP was determined as 100 % basal. Moreover, on PDE V (read-out: PDE V IC50), the IC50 stood at 4500 nM. Further, in the assay on cyclic GMP, the “cyclic GMP % basal” value was 110 % basal. Further, in the assay with rat submandibular acini, the “Mucin secretion % basal” value is reported as 160* % basal.

As for `CCCCOc1ccccc1-c1nc2cccnc2[nH]1` [g)], in the assay with cyclic AMP, the “cyclic AMP % basal” value was 160* % basal. On PDE V (read-out: PDE V IC50), the IC50 is 750 nM. In addition, the “cyclic GMP % basal” value in the assay on cyclic GMP stood at 110 % basal. Also, the “Mucin secretion % basal” value with rat submandibular acini was 200* % basal.

For the compound `O=c1[nH]c(-c2ccccc2O)nc2[nH]cnc12` [h)], the “cyclic AMP % basal” value in the assay with cyclic AMP was 100 % basal. Besides, on PDE V (read-out: PDE V IC50), the 50% inhibitory concentration (IC50) amounted to 48000 nM. Besides, the “cyclic GMP % basal” value in the assay with cyclic GMP worked out at 110 % basal. Besides, the “Mucin secretion % basal” value with rat submandibular acini is 180* % basal.

Take `CCCOc1ccccc1-c1nc2nc(NCC(C)O)ncc2c(=O)[nH]1` (stereo not drawn) [i)]: in the assay with cyclic AMP, the “cyclic AMP % basal” value turned out to be 100 % basal. Further, the IC50 at PDE V (read-out: PDE V IC50) was 200 nM. Also, the “cyclic GMP % basal” value with cyclic GMP is 90 % basal. Also, the “Mucin secretion % basal” value with rat submandibular acini was 170* % basal.

`CCOc1ccccc1-c1nc2[nH]c(=O)[nH]c2c(=O)[nH]1` [j)]: the “cyclic AMP % basal” value in the assay with cyclic AMP came out at 100 % basal. Further, at PDE V (read-out: PDE V IC50), the IC50 is 1300 nM. The “cyclic GMP % basal” value with cyclic GMP is reported as 140* % basal. Besides, the “Mucin secretion % basal” value in the assay with rat submandibular acini was 160* % basal.
